# In article PMC12136037, “Type II kinase inhibitors that target Parkinson’s disease–associated LRRK2” (Science Advances, 2025):
# Like-named read-outs stand apart in the source and are kept apart here.
# Assays:
# Assay in all cases: DSF 100 kinase selectivity screen;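 further: compound tested at 20 µM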
# Assay type in all cases: binding
# [1] = target: T1, ~100 representative kinases (Homo sapiens, UniProt Q13043); settings: Protein STK4; DSF; average of three replicates
# T1 construct: Recombinant protein kinase domains with a concentration of 2 μM
# T1 sequence (Q13043 1-487): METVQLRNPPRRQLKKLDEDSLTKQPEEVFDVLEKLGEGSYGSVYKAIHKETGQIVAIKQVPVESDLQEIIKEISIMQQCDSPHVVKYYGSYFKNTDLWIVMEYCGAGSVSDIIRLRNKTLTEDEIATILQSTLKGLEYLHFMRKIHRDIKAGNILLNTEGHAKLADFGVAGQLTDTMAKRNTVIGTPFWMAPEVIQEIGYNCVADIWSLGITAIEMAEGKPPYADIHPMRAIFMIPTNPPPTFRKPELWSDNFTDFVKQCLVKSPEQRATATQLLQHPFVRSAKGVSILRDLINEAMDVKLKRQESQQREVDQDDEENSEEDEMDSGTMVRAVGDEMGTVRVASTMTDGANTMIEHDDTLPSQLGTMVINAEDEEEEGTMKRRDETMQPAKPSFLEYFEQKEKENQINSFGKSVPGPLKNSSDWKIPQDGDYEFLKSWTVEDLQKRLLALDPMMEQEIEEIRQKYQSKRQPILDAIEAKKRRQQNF
# Method: (§1) Recombinant protein kinase domains with a concentration of 2 μM were mixed with a 20 μM compound solution in dimethyl sulfoxide (DMSO), 20 mM Hepes (pH 7.5), and 500 mM NaCl. SYPRO Orange (5000×, Invitrogen) was added as a fluorescence probe (1μl/ml). Subsequently, temperature-dependent protein unfolding profiles were measured using the QuantStudio 5 realtime PCR machine (Thermo Fisher Scientific, Waltham, MA, USA). […] The temperature was raised with a step rate of 3°C/min. […] Differences in melting temperature are given as ΔTm values in degrees Celsius. […]
# [2] = target: T2, ~100 representative kinases (Homo sapiens, UniProt Q14680); settings: protein MELK; average of three replicates
# T2 construct: Recombinant protein kinase domains with a concentration of 2 μM
# T2 sequence (Q14680 whole entry, the tested form may be a part): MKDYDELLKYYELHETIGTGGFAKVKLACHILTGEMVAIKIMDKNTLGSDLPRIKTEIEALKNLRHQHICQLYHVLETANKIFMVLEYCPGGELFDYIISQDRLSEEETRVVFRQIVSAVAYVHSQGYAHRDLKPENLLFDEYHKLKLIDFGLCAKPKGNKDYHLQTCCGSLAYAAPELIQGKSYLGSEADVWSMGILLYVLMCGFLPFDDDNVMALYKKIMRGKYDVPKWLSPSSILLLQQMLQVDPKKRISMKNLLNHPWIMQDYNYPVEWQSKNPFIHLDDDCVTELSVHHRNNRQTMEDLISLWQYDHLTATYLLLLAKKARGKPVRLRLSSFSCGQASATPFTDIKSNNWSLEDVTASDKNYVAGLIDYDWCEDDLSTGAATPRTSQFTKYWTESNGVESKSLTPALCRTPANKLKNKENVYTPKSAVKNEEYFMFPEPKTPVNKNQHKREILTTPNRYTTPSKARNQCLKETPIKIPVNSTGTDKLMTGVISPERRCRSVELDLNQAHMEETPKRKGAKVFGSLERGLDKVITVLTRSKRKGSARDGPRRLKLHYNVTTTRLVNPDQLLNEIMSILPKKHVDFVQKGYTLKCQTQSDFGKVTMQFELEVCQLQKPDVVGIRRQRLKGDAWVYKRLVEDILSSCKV
# Method: as §1
# [3] = target: T3, ~100 representative kinases (Homo sapiens, UniProt O14965); settings: Protein STK6; DSF; average of three replicates
# T3 construct: Recombinant protein kinase domains with a concentration of 2 μM
# T3 sequence (O14965 1-403): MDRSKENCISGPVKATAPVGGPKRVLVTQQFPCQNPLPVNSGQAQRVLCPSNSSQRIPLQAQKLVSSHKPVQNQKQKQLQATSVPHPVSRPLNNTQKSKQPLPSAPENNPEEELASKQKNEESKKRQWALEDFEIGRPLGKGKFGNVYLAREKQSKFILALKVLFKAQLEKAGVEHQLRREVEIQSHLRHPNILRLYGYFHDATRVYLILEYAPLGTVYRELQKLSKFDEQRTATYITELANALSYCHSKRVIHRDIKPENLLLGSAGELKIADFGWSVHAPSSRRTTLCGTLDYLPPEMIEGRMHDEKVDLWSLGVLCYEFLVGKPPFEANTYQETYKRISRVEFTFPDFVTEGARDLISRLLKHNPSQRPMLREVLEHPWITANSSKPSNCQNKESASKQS
# Method: as §1
# [4] = target: T4, ~100 representative kinases (Homo sapiens, UniProt Q9H4A3); settings: Protein WNK1; DSF; average of three replicates
# T4 construct: Recombinant protein kinase domains with a concentration of 2 μM
# T4 sequence (Q9H4A3 whole entry, the tested form may be a part): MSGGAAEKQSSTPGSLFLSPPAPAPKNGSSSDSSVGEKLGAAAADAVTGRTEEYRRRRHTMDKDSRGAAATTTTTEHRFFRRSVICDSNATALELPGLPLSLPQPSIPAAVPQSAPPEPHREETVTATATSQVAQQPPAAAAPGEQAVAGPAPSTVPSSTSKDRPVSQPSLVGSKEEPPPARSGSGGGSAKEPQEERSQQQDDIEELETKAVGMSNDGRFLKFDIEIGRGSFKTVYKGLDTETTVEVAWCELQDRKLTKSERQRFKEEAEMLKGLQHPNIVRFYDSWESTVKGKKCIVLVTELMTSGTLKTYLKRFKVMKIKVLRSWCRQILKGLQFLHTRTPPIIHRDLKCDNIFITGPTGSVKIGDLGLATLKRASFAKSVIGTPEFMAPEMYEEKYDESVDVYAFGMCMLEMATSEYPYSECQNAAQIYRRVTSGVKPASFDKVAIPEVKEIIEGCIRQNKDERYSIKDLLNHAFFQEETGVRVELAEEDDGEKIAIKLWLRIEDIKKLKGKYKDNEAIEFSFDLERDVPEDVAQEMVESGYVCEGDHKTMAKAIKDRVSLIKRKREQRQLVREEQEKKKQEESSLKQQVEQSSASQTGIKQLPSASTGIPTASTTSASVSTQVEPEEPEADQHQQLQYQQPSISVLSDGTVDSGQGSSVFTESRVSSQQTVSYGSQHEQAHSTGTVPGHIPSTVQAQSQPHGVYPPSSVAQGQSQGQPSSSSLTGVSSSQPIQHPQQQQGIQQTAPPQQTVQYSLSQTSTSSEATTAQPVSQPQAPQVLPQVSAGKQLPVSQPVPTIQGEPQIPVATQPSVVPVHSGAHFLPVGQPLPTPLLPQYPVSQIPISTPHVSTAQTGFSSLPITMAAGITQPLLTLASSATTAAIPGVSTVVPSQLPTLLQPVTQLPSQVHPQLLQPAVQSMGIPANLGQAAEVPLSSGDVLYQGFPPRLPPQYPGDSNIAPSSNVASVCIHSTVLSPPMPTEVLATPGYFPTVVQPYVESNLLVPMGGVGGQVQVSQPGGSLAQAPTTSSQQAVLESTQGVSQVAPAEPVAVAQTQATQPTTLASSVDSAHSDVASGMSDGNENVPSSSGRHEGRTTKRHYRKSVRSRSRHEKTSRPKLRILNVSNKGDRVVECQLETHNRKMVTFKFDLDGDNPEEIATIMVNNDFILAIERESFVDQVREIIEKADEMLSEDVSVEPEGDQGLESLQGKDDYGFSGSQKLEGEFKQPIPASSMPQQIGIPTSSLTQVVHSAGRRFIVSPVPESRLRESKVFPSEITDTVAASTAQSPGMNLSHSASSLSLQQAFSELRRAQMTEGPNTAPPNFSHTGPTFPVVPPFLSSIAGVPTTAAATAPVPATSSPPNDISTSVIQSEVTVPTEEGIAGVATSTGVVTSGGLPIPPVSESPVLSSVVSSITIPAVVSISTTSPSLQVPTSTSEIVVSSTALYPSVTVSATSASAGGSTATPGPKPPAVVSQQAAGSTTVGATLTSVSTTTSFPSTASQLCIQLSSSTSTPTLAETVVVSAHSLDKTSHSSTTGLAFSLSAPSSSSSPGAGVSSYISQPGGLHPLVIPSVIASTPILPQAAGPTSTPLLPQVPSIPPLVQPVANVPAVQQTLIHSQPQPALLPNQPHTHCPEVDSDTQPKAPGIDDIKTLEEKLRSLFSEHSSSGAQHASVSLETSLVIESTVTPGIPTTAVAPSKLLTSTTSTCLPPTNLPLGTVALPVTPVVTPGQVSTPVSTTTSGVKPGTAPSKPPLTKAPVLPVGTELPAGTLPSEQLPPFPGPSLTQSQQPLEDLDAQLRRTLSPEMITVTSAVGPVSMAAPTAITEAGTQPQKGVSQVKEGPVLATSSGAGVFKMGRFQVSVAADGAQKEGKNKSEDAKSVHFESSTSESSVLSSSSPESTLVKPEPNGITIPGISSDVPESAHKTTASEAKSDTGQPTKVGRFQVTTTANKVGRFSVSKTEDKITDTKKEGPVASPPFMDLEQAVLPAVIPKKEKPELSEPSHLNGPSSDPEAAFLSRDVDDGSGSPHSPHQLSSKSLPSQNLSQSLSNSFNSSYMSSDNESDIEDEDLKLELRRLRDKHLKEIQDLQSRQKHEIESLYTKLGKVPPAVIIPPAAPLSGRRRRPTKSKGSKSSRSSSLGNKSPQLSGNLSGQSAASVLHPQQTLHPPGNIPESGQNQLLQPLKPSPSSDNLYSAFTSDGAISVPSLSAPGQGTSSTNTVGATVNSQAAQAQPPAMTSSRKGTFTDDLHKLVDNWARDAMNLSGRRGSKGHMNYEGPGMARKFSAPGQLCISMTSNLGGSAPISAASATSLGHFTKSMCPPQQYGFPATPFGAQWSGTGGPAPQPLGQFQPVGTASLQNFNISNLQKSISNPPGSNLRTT
# Method: as §1
# [5] = target: T5, ~100 representative kinases (Homo sapiens, UniProt Q12866); settings: protein MERTK; average of three replicates
# T5 construct: Recombinant protein kinase domains with a concentration of 2 μM
# T5 sequence (Q12866 21-999): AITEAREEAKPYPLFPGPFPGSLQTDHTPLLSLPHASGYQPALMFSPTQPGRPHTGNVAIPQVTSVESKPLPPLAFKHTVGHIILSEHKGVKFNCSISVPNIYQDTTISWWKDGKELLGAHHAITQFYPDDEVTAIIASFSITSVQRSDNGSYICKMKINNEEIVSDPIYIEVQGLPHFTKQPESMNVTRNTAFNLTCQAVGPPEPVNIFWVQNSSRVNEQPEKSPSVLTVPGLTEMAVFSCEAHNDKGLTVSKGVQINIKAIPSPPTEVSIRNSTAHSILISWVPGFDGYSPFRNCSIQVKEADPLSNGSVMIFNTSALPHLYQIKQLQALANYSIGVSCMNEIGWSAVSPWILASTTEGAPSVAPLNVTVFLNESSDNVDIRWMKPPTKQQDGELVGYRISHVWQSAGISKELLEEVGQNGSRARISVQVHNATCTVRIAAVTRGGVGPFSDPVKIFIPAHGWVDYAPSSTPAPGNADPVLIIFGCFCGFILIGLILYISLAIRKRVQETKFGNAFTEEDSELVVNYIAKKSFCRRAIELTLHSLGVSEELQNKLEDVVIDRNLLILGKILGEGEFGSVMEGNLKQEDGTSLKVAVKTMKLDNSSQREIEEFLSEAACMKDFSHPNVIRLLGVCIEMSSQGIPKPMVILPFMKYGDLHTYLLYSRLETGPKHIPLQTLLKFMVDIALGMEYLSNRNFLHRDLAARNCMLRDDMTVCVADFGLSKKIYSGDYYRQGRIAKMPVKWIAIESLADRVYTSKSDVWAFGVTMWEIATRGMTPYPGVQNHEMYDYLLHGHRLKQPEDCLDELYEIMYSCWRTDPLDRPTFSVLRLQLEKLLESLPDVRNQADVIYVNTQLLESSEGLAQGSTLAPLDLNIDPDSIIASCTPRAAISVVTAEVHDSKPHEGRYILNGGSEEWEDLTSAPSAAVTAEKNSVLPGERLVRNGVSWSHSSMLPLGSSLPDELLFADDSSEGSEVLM
# Method: as §1
# [6] = target: T6, ~100 representative kinases (Homo sapiens, UniProt P00519)
# T6 construct: Recombinant protein kinase domains with a concentration of 2 μM
# Method: as §1
# [7] = target: T7, ~100 representative kinases (Homo sapiens, UniProt Q9H2X6); settings: protein HIPK2; average of three replicates
# T7 construct: Recombinant protein kinase domains with a concentration of 2 μM
# T7 sequence (Q9H2X6 whole entry, the tested form may be a part): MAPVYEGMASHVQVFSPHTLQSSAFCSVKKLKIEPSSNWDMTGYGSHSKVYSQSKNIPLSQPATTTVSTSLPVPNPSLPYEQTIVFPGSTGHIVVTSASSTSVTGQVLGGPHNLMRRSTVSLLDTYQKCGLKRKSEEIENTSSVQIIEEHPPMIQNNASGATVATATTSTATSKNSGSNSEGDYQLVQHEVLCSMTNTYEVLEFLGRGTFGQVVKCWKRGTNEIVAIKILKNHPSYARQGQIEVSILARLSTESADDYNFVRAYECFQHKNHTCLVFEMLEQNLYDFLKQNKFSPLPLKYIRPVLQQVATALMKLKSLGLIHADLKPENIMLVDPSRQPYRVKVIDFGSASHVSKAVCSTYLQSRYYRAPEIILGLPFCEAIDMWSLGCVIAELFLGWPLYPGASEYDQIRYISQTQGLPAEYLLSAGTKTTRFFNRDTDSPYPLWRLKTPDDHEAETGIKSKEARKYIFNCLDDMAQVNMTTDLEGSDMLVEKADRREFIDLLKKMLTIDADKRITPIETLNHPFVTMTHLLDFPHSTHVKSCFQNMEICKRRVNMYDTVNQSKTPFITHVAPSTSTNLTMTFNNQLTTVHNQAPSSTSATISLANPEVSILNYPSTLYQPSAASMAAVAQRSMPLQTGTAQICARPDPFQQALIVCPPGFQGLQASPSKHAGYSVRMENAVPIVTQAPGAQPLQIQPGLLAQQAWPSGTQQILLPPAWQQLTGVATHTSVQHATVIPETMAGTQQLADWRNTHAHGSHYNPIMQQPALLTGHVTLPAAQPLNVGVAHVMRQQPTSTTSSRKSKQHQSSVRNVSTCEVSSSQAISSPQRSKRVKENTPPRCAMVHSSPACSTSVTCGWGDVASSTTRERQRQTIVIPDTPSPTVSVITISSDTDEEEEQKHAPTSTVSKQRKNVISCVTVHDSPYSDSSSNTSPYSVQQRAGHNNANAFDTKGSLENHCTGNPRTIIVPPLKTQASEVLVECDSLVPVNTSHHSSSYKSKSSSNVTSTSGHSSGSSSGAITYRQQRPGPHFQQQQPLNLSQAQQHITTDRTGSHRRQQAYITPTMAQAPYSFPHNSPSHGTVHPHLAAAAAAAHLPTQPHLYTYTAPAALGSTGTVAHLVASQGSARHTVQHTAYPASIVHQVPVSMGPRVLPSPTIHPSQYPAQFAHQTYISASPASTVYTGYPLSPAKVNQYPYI
# Method: as §1
# [8] = target: T8, ~100 representative kinases (Homo sapiens, UniProt Q9Y2H1); settings: Protein STK38L; DSF; average of three replicates
# T8 construct: Recombinant protein kinase domains with a concentration of 2 μM
# T8 sequence (Q9Y2H1 whole entry, the tested form may be a part): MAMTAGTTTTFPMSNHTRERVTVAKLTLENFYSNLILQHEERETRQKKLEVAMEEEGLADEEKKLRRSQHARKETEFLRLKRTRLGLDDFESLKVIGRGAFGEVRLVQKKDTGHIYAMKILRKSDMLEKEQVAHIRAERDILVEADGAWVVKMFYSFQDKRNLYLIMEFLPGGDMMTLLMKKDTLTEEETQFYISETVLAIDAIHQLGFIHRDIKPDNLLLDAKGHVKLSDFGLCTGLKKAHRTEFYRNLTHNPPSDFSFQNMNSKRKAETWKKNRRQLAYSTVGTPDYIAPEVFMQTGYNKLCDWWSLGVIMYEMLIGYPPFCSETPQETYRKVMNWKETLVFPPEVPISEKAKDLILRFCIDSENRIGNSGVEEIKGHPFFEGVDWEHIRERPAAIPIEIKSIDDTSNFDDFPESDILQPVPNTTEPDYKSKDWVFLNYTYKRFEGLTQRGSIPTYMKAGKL
# Method: as §1
# [9] = Protein ABL1, average of three replicates
dTm [1] [K],dTm [2] [K],dTm [3] [K],dTm [4] [K],dTm [5] [K],"dTm [6, 9] [K]",dTm [7] [K],dTm [8] [K],Structure (SMILES),dTm [6] [K]
4.75,13.56,6.33,-0.34,0.52,1.35,6.30,0.0847,O=C(Nc1cccc(-c2c[nH]c3ncnc(N4CCOCC4)c23)c1)C1(C(=O)Nc2ccc(F)cc2F)CC1 [Compound 23],–
7.44,17.51,8.40,0.02,2.15,2.29,11.54,0.36,Cc1cc(NC(=O)C2(C(=O)Nc3cccc(-c4c[nH]c5ncnc(N6CCOCC6)c45)c3)CC2)ccc1F [Compound 20],–
4.59,2.26,0.55,0.46,0.10,2.73,2.23,-0.73,CC(=O)N1CCN(c2nc(Cl)nc3[nH]cc(-c4cccc(NC(=O)Nc5cc(C(C)(C)C)nn5-c5ccc(C)cc5)c4)c23)CC1 [Compound 31],–
0.00,11.24,6.69,0.73,1.86,1.02,0.87,0.00,Cc1cc(NC(=O)C2(C(=O)Nc3ccc(F)cc3)CC2)cc(-c2c[nH]c3ncnc(N4CCOCC4)c23)c1 [Compound 6],–
4.49,12.58,6.39,-0.065,2.64,1.58,7.64,0.29,O=C(Nc1ccccc1)C1(C(=O)Nc2cccc(-c3c[nH]c4ncnc(N5CCOCC5)c34)c2)CC1 [Compound 12],–
0.00,17.38,7.49,0.64,2.86,1.83,2.50,0.00,O=C(Nc1cccc(-c2c[nH]c3ncnc(N4CCOCC4)c23)c1)C1(C(=O)Nc2ccc(F)c(Br)c2)CC1 [Compound 19],–
4.23,2.91,1.21,-0.58,-1.91,2.41,1.85,-1.01,Cc1ccc(-n2nc(C(C)(C)C)cc2NC(=O)Nc2cccc(-c3c[nH]c4nc(Cl)nc(N5CCOCC5)c34)c2)cc1 [Compound 30],–
8.26,2.71,4.51,1.32,5.15,7.77,9.47,0.64,CC(C)(C)c1cc(NC(=O)Nc2cccc(-c3c[nH]c4ncnc(N5CCOCC5)c34)c2)n(-c2ccc3ncccc3c2)n1 [Compound 28],–
0.31,2.44,3.65,-0.0645,2.33,0.74,0.82,0.75,CCNc1nc(Nc2cc(F)c(C(=O)N3CCOCC3)cc2OC)ncc1C(F)(F)F [GNE-7915],–
-11.70,10.76,4.34,0.35,2.34,1.38,1.82,0.00,O=C(Nc1cccc(-c2c[nH]c3ncnc(N4CCOCC4)c23)c1)C1(C(=O)Nc2cccc3c2CCC3)CC1 [Compound 11],–
6.48,13.04,8.24,1.16,1.59,2.25,10.76,0.59,O=C(Nc1cccc(-c2c[nH]c3ncnc(N4CCOCC4)c23)c1)C1(C(=O)Nc2ccc(F)c(Cl)c2)CC1 [Compound 18],–
4.82,11.82,7.04,0.16,0.92,1.79,8.21,0.07,Cc1ccc(NC(=O)C2(C(=O)Nc3cccc(-c4c[nH]c5ncnc(N6CCOCC6)c45)c3)CC2)cc1 [Compound 14],–

Structure (SMILES),dTm [1] [K],dTm [2] [K],dTm [3] [K],dTm [4] [K],dTm [5] [K],"dTm [6, 9] [K]",dTm [7] [K],dTm [8] [K],dTm [6] [K]
"Cc1ccc(C(=O)Nc2ccc(CN3CCN(C)CC3)c(C(F)(F)F)c2)cc1C#Cc1cnc2cccnn12 [Ponatinib, reference compound]",–,–,1.61,–,4.58,–,–,–,–
Cn1cc(-c2c[nH]c3ncnc(N4CCOCC4)c23)cc1C#N [PFE-360],4.12,5.72,8.08,0.08,0.31,3.25,0.25,0.0435,–
"COc1cc2c(Oc3ccc(NC(=O)C4(C(=O)Nc5ccc(F)cc5)CC4)cc3F)ccnc2cc1OCCCN1CCOCC1 [Foretinib, reference compound]",8.95,7.59,–,1.01,13.18,13.44,4.61,0.47,–
"Cc1ccc(C(=O)Nc2ccc(CN3CCN(C)CC3)c(C(F)(F)F)c2)cc1C#Cc1cnc2[nH]ncc2c1 [GZD-824, reference compound]",4.50,5.45,3.67,0.53,5.77,–,1.22,2.07,30.43
CN[C@@H]1C[C@H]2O[C@@](C)([C@@H]1OC)n1c3ccccc3c3c4c(c5c6ccccc6n2c5c31)C(=O)NC4 [Staurosporine],–,14.15,20.49,2.20,6.40,–,4.23,–,–
"CNC(=O)c1cc(Oc2ccc(NC(=O)Nc3cc(C(C)(C)C)nn3-c3ccc4ncccc4c3)c(F)c2)ccn1 [Rebastinib, reference compound]",7.33,0.63,1.83,–,–,–,–,–,–
